From patent US20250228865A1, “COMPOUNDS FOR ENHANCING READ THROUGH OF GENES CONTAINING PREMATURE TERMINATION CODONS AND METHODS FOR MAKING AND USING THE SAME” (Sanofi US Services Inc., priority 2022, published 2025)
pEC50: −log10 of the molar value.

Legend:
[1] = tested on: recombinant human CFTR carrying the premature stop codon (PTC) mutation G542X; assay: CFTR-PTC mutant translation readthrough, Nanoluc tagged CFTR luminescence (G542X cell line); format: cell-based; conditions: in combination with G418, G542X cell line; for CFTR G542X ACTIVITY Fold 10 μM G-418: fold over 10 μM G-418; for pEC50: 16HBE cells
Procedure: (§1) 16HBE human bronchial epithelial cells (stably over-expressing recombinant human CFTR carrying the premature stop codon (PTC) mutation G542X or R1162X along with a Nanoluc tag incorporated into the CFTR channel within extracellular loop 4 in G542X cell line or C-terminus end in the R1162X cell line were seeded at 0.01×10^6 cells/well and grown in Minimal Essential Medium (MEM) as monolayers in 384 well plates and incubated at 37° C. with 5% CO2. Media was changed every other day until day of experiment. Agents to be evaluated were made up in separate 384 well, polypropylene plates at a 2X the final desired test concentration. Test agent 10-point concentration response curves were constructed using the Labcyte Echo 555 acoustic dispenser. Test agents were typically tested at a max final test concentrations of 50 μM with sequential 2-fold lower concentrations below this in the absence or presence of a fixed 10 μM concentration of the aminoglycoside G418 made up in MEM growth media (reduced Serum Media+HEPES Buffer+2.4 g/L Sodium Bicarbonate+L-Glutamine containing CFTR corrector VX-809 (3 μM)). Treatment with 10 μM G418 alone produced approximately 10% of the response observed with a maximally effective concentration of G418 (typically 125-250 μM). Test agent effects in presence of 10 μM G418 were compared to control wells on the plate containing a maximally effective concentration of G418 (typically 125-250 μM) made up in the same media. 25 ul of test agents/control solutions were transferred from the compound plate to the cell plate, which already contained 25 ul/well of cell plating media, using an Integra Viaflo 384. Cell plates were incubated with the compounds for 48 hours, at which time they were processed using Nanoluc luminescence Kit (Promega Nano-Glo Live Cell Assay System) to measure CFTR-PTC mutant translation readthrough. Luminescence was measured as follows. Cell plates were removed from the incubator and allowed to equilibrate to room temperature for 20 minutes. Media was removed from all wells and the plates were blotted to remove excess remaining volume. Nano-Glo Live Cell Substrate was diluted 1:20 in the appropriate amount of Nano-Glo LCS Dilution Buffer to accommodate the number of cell plates being tested. The substrate/dilution buffer mix was then diluted 1:3 with MEM media to make the appropriate volume for the number of plates being tested. The substrate/dilution buffer/OptiMEM mix was added across the Nanoluc testing cell plates and the plates were read for luminescence signal immediately. Test agent effects on CFTR translation readthrough was determined by normalizing any observed increase in luminescence induced by 48 hours pretreatment with test compound to the magnitude of luminescence increase produced by pretreatment with a maximally effective concentration of the reference readthrough enhancing agent G418 (125-250 μM).

[2] = tested on: recombinant human CFTR carrying the premature stop codon (PTC) mutation R1162X; assay: CFTR-PTC mutant translation readthrough, Nanoluc tagged CFTR luminescence (R1162X cell line); format: cell-based; conditions: for CFTR R1162X ACTIVITY Fold 10 μM G-418: fold over 10 μM G-418, in combination with G418; for pEC50: in combination with G418, 16HBE cells, read-out: CFTR R1162X ACTIVITY EC50
Procedure: as §1

Row | Compound | CFTR G542X ACTIVITY Fold 10 μM G-418 [1] | pEC50 [1] | CFTR R1162X ACTIVITY Fold 10 μM G-418 [2] | pEC50 [2]
1 | Cn1cnc(-c2ccc(OCc3c(Cl)cccc3Cl)cc2)c1 [4-[4-[(2,6-dichlorophenyl)methoxy]phenyl]-1-methyl-imidazole] | A′ (A′ = ≥10X) | 5.00 to 6.00 | A′ (A′ = ≥10X) | 5.00 to 6.00
2 | OCC1CN(c2ccc(OCc3c(Cl)cccc3Cl)cn2)CCO1 (centres unmarked) [[4-[5-[(2,6-dichlorophenyl)methoxy]-2-pyridyl]morpholin-2-yl]methanol] | A′ (A′ = ≥10X) | 5.00 to 6.00 | A′ (A′ = ≥10X) | 5.00 to 6.00
3 | O=C1NC2(CC2)C(=O)N1c1ccc(OCc2c(Cl)cccc2C(F)(F)F)cc1 | A′ (A′ = ≥10X) | > 6.00 | A′ (A′ = ≥10X) | 5.00 to 6.00
4 | OCc1cc(-c2ncc(OCc3c(Cl)cccc3C(F)(F)F)cn2)[nH]n1 | A′ (A′ = ≥10X) | > 6.00 | A′ (A′ = ≥10X) | 5.00 to 6.00
5 | CC(=O)NCC1CN(c2ccc(OCc3c(C)cccc3C(F)(F)F)cc2)C(=O)O1 (centres unmarked) | A′ (A′ = ≥10X) | 5.00 to 6.00 | A′ (A′ = ≥10X) | 5.00 to 6.00
6 | Cc1cccc(C(F)(F)F)c1COc1ccc(N2C(=O)NC(C)(C)C2=O)cc1 | A′ (A′ = ≥10X) | > 6.00 | A′ (A′ = ≥10X) | > 6.00
7 | Cc1cccc(C(F)(F)F)c1COc1cnc(N2CCC[C@H](O)C2)nc1 | A′ (A′ = ≥10X) | > 6.00 | A′ (A′ = ≥10X) | > 6.00
8 | O=C1CNC(=O)N1c1ccc(OCc2c(Cl)cccc2C(F)(F)F)cn1 | B′ (B′ = ≥5X to <10X) | 5.00 to 6.00 | – | < 5.00
9 | O=C1OC(CO)CN1c1ccc(OCc2c(Cl)ccc(F)c2Cl)cc1 (centres unmarked) | A′ (A′ = ≥10X) | 5.00 to 6.00 | B′ (B′ = ≥5X to <10X) | 5.00 to 6.00
10 | OC[C@@H]1CN(c2ncc(OCc3c(Cl)cccc3Cl)cn2)CC[C@@H]1O (racemic) | A′ (A′ = ≥10X) | > 6.00 | A′ (A′ = ≥10X) | 5.00 to 6.00
11 | Cc1cccc(C(F)(F)F)c1COc1cnc(N2CCNC(=O)C2)nc1 [4-[5-[[2-methyl-6-(trifluoromethyl)phenyl]methoxy]pyrimidin-2-yl]piperazin-2-one] | A′ (A′ = ≥10X) | > 6.00 | A′ (A′ = ≥10X) | > 6.00
12 | CC(C)C1NC(=O)N(c2ncc(OCc3c(Cl)cccc3Cl)cn2)C1=O (centres unmarked) | A′ (A′ = ≥10X) | < 5.00 | B′ (B′ = ≥5X to <10X) | < 5.00
13 | CC1CN(c2ncc(OCc3c(Cl)cccc3Cl)cn2)CCN1C(N)=O (centres unmarked) | A′ (A′ = ≥10X) | > 6.00 | A′ (A′ = ≥10X) | > 6.00
14 | OCc1ccn(-c2ncc(OCc3c(Cl)cccc3Cl)cn2)n1 [[1-[5-[(2,6-dichlorophenyl)methoxy]pyrimidin-2-yl]pyrazol-3-yl]methanol] | A′ (A′ = ≥10X) | > 6.00 | A′ (A′ = ≥10X) | 5.00 to 6.00
15 | Cc1cccc(OC(F)F)c1COc1cnc(-n2ccc(CO)n2)nc1 | A′ (A′ = ≥10X) | 5.00 to 6.00 | C′ (C′ = <5X) | 5.00 to 6.00
16 | NC1(CO)CCN(c2ncc(OCc3c(Cl)cccc3C(F)(F)F)cn2)C1 (centres unmarked) | A′ (A′ = ≥10X) | < 5.00 | B′ (B′ = ≥5X to <10X) | 5.00 to 6.00
17 | O=C(O)C1CCN(c2ncc(OCc3c(Cl)cccc3C(F)(F)F)cn2)C1 (centres unmarked) | A′ (A′ = ≥10X) | 5.00 to 6.00 | B′ (B′ = ≥5X to <10X) | 5.00 to 6.00
18 | O=C1OC(CO)CN1c1ccc(OCc2cc(Cl)cc(Cl)c2)cn1 (centres unmarked) [3-[5-[(3,5-dichlorophenyl)methoxy]-2-pyridyl]-5-(hydroxymethyl)oxazolidin-2-one] | A′ (A′ = ≥10X) | 5.00 to 6.00 | A′ (A′ = ≥10X) | 5.00 to 6.00
19 | Cc1cccc(C(F)(F)F)c1COc1cnc(N(C)CCCCO)nc1 | A′ (A′ = ≥10X) | > 6.00 | A′ (A′ = ≥10X) | > 6.00
20 | CCc1cccc(C(F)(F)F)c1COc1ccc(N2CC(CO)NC2=O)cc1 (centres unmarked) | A′ (A′ = ≥10X) | > 6.00 | A′ (A′ = ≥10X) | 5.00 to 6.00
21 | CC1(C)CN(c2ncc(OCc3c(Cl)cccc3Cl)cn2)CC(CO)O1 (centres unmarked) | A′ (A′ = ≥10X) | 5.00 to 6.00 | A′ (A′ = ≥10X) | 5.00 to 6.00
22 | Cc1cccc(C(F)(F)F)c1COc1cnc(N2CC(=O)NC2=O)nc1 | A′ (A′ = ≥10X) | 5.00 to 6.00 | A′ (A′ = ≥10X) | 5.00 to 6.00
23 | OCc1cn(-c2ccc(OCc3c(Cl)cccc3C(F)(F)F)cn2)cn1 | A′ (A′ = ≥10X) | > 6.00 | A′ (A′ = ≥10X) | 5.00 to 6.00
24 | Cc1cccc(C(F)(F)F)c1COc1cnc(N2CC3CC(C2)C3O)nc1 (centres unmarked) | A′ (A′ = ≥10X) | 5.00 to 6.00 | A′ (A′ = ≥10X) | 5.00 to 6.00
25 | OC1CCCN(c2ncc(OCc3c(Cl)cccc3Cl)cn2)C1 (centres unmarked) [1-[5-[(2,6-dichlorophenyl)methoxy]pyrimidin-2-yl]piperidin-3-ol] | A′ (A′ = ≥10X) | > 6.00 | A′ (A′ = ≥10X) | 5.00 to 6.00
26 | Cc1c(F)ccc(C(F)(F)F)c1COc1ccc(-n2cnc(CO)n2)cc1 | – | – | C′ (C′ = <5X) | > 6.00
27 | Cc1ccc(F)c(C(F)(F)F)c1COc1ccc(-n2cnc(CO)n2)cc1 | – | – | A′ (A′ = ≥10X) | > 6.00
28 | NC(=O)c1ccn(-c2ncc(OCc3c(C(F)(F)F)cccc3C(F)(F)F)cn2)n1 | – | – | A′ (A′ = ≥10X) | > 6.00
29 | O=C1CN(c2ccc(OCc3c(Cl)cccc3Cl)cn2)C(=O)N1 [Compound 332, 1-{5-[(2,6-dichlorophenyl)methoxy]pyridin-2-yl}imidazolidine-2,4-dione] | – | – | C′ (C′ = <5X) | > 6.00
